Assay results from patent US12268665B2, “Combination of immunotherapies with MDM2 inhibitors” (ASCENTAGE PHARMA (SUZHOU) CO., LTD., priority 2018, dated 2025).

Key:
[1] = Phase I study APG-115-US-001 (NCT02935907): safety; format: in vivo
Method: (§1) This Phase I study (APG-115-US-001) was designed to assess safety, toxicity, pharmacokinetics (PK), pharmacodynamics (PD), and antitumor activity of APG-115 orally in patients with advanced solid tumors in US (NCT02935907).
For Safety study of APG-115, the safety evaluation included vital signs, electrocardiogram (ECG) parameters, Easter Cooperative Oncology Group (ECOG) performance status data, clinical laboratory tests and adverse event data. Safety assessments were performed in each treatment cycle.
Single dose escalation study was conducted. A standard “3+3” design was employed to determine the maximum tolerated dose (MTD) of APG-115 by assessing the dose limiting toxicity (DLT) of APG-115. […] of APG-115 was tested: 10, 20, 50, 100, 200, and 300 mg. APG-115 was administrated orally every other day (QOD) for a consecutive 3 weeks (i.e. dosed at Day 1, 3, 5, 7, 9, 11, 13, 15, 17, 19, and 21), with one week dosing off as 4-weeks a cycle. […] The scheme of the trial design is provided below.

[2] = system: serum MIC-1 (PD marker of TP53 activation); test: Phase I study APG-115-US-001: pharmacodynamics; format: in vivo, human; settings: within the dose range tested
Source text: as §1

[3] = system: stimulated mouse splenocytes; test: Cytokine production in stimulated mouse splenocytes (MSD V-PLEX); format: cell-based; settings: 250 nM, 24 h
Method: The effect of APG-115 on cytokine production in stimulated mouse splenocytes was investigated. Mouse splenocytes freshly isolated from mice were stimulated with 5 μg/ml plate-bound anti-CD3 and 2 μg/ml anti-CD28 in the presence of APG-115 (250 nM) or DMSO for 24 h. After the treatment, supernatants were collected from the cell cultures and then cytokines were measured by MSD V-PLEX kit which enabled to test 10 cytokines.

[4] = system: tumor infiltrating cells in MH-22A syngeneic tumors; test: TIL analysis by flow cytometry, p53 wt MH-22A syngeneic tumors; format: in vivo; settings: p53 wt MH-22A tumors
Method: The live/dead fixable dye (Invitrogen) was used to exclude dead cells. The FOXP3 kit from eBioscience was used for FOXP3 staining. Cells were washed and stained for 30 min on ice with indicated antibodies in MACS buffer or Brilliant staining buffer. Samples were than analyzed on Life Technology Attune NxT flow cytometer.
Mice were euthanized on day 7, and tumors were mechanically dissociated and digested with Collagenase IV (Sigma), hyaluronic acid (Sigma) and DNase (Sigma). Single-cell suspensions were prepared and stained against the indicated markers for flow cytometry analysis. Tumor samples were collected 24 hrs post last dosing.
On d7, when the mean tumor volume reached approximately 300-500 mm3, syngeneic tumors were collected and processed for TIL analysis. […] There were approximately a 1.5 to 2-fold increase relative to the control. […] Most strikingly, the frequency of M2 macrophages was reduced by the combined therapy in comparison with both control (P<0.01) and anti-PD-1 single agent groups (P<0.05).

MH-22A cells = test: PD-L1 expression on tumor cells (Western blotting, flow cytometry); format: cell-based, mouse; settings: 72 h
Method: Transcription factor p53 is involved in the regulation of PD-L1 expression (Cortez M A, 2015), which might serve as an indicator of the efficacy of anti-PD-1/PD-L1 treatment. Besides the effects on T cells, how APG-115 effects PD-L1 expression on MH-22A tumor cells was also investigated in vitro.
MH-22A cells were treated with indicated doses of APG-115 for 72 h. The expression levels of MDM2, p53, total STAT3 (t-STAT3), phosphorylated STAT3 (p-STAT3), PD-L1, and β-actin (loading control) expression were determined by Western blotting. PD-L1 expression levels which were reflected by fluorescence intensity were determined by flow cytometry.

CCN1[C@@H](C(=O)NC23CCC(C(=O)O)(CC2)CC3)[C@H](c2cccc(Cl)c2F)[C@]2(C(=O)Nc3cc(Cl)ccc32)C12CCCCC2 [APG-115]
MTD/RP2D of APG-115 monotherapy ([1]; QOD 3 weeks on, 1 week off): 100 mg | pts discontinued treatment: Adverse Event ([1]; human, in vivo): 3 | DLTs observed during cycle 1 ([1]; in vivo): Four | events determined as DLTs ([1]; in vivo): Platelet count decreased, fatigue, and nausea | patients with Absolute neutrophil count decreased (less than 1.00×10^3/uL) after C2D21 ([1]; in vivo): three patients | Serum MIC-1 increase [2]: exposure dependent | expression levels of IL-1β, IL-5, KC/GRO, IL-12p70 [3]: below detection limit | inflammatory cytokines including IFN-γ, IL-2, TNF-α, IL-10 and IL-4 ([3]; anti-CD3/anti-CD28 stimulated): upregulation | CD4+ T cells, NK cells, MDSCs, and regulatory T (Treg) cells [4]: no significant changes | expression of TP53 and pSTAT3 proteins (MH-22A cells; Western blotting): upregulated in a dose-dependent manner | surface expression of PD-L1 (MH-22A cells; flow cytometry): dose-dependent increase
